In paper doi:10.1101/2020.02.26.964882v3 (biorxiv, 2020):

Target: COVID-19 virus M^pro (Severe acute respiratory syndrome coronavirus 2, UniProt P0DTD1)
Test: enzymatic inhibition assay
Format: biochemical

**Q.** For `CN(C)CCCSc1ccccc1NC(=O)/C=C/c1ccccc1` [cinanserin], which IC50 is on record?
**A.** 125 µM
